Data as given in patent publication US9150534B2, “Prodrugs of fluorinated mevalonates to inhibit the mevalonate pathway of Streptococcus pneumoniae” (Northwestern University, priority 2012, dated 2015).
Like-named read-outs stand apart in the source and are kept apart here. One block for each compound: values may come before it.

Assays:
[1] = Evaluation of stability in human plasma, HPLC or LC-TOF; format: in vitro ADME
Method: The stabilities of diverse cyclic carbonate prodrugs (4, 9, 10, 11, 17, 18, 19, 25, 29, 30, 39, 40, and 41), which have a chromosphere for UV detection, in human plasma were tested using HPLC. After the mixture of test compounds and human plasma were incubated at 37° C., the degradation of the compounds was monitored by HPLC (Table 2). […] The peaks of the corresponding diols (3, 24, or 34), which were the compounds that result when only the carbonate moiety of the analogues was hydrolyzed, were not observed. The half-lives of the benzyl or phenyl ester moieties may be shorter than carbonate, under tested conditions for such compounds to be used effectively as prodrugs.
Human plasma (100%, 480 μL) was incubated at 37° C. for 5 min. The stock solution of the test compound (100 mM in acetonitrile, 20 μL) was added to the human plasma, and the mixture was incubated at 37° C. Aliquots (80 μL) of the plasma samples were removed and mixed with an equal volume of acetonitrile. The mixture was stirred vigorously and centrifuged (5500 rpm, 5 min). The supernatant was filtered and the filtrate was analyzed by HPLC or LC-TOF (See below). These tests were conducted two times in each compound.
(§1) Analysis was performed on a Phenomenex® Luna C18 column (250×4.6 mm) eluted with a gradient conditions of acetonitrile and H2O. Detection was by UV absorbance at 257 nm or total count of single ion in Agilent 6210 LC-TOF mass spectra.

[2] = Evaluation of stability in PBS buffer (pH=7.4), HPLC; format: physicochemical; conditions: for half-life at 1 mM: PBS buffer pH=7.4, 37° C., read-out: half-life time (T1/2) in PBS buffer (converted)
Method: The stabilities of several cyclic carbonate analogues in PBS buffer (pH=7.4) were tested first to determine the standard level of the drug decomposition by media (Table 1). PBS (phosphate buffered saline) buffer is a standard solution used in plasma stability tests. […] After the compounds were incubated in PBS buffer at 37° C., the degradation of the compounds with incubation time was monitored. As the number of fluorines at the C6 position was increased, the half-life time (T1/2) of the molecule was decreased dramatically (4 vs 25 vs 35). T1/2 of the C6-methyl analogue (4) was more than 48 hours and T1/2 of C6-monofluoromethyl analogues (25, 29, and 30) were about 25 hours while T1/2 of C6-trifluoromethyl analogues (35, 39, and 40) were about 5 hours. If the substitution of C-6 position (CH3, CH2F, or CF3) was same, T1/2 of diverse benzyl esters (benzyl, 4-fluorobenzyl, or 2,4-difluorobenzyl) were not dramatically changed. […] These half-lives of benzyl esters and cyclic carbonates in PBS buffer were sufficient to use these promoieties for the penetration of the cell membrane.
The stock solution of the test compound (10 mM in acetonitrile, 50 μL) was added to PBS buffer (pH=7.4, 450 μL), and the mixture was incubated at 37° C. Aliquots of the samples were analyzed directly by HPLC (See below). These tests were conducted two times in each compound.
as §1

[3] = human, human plasma (100%), 37° C., read-out: T1/2 (stabilities of the benzyl amide analogues with acetal, ketal, t-butyl carbonate promoieties in human plasma)
[4] = human, human plasma (100%), 37° C., read-out: half-life (T1/2) in human plasma
[5] = read-out: half-life of the ester moieties on the carboxylic acids
[6] = human, human plasma (100%), 37° C., read-out: T1/2 (half-lives of diverse carbonate in human plasma)

SMILES: O=C(CC1(CF)CCOC(=O)O1)OCc1ccccc1 (stereo not drawn) [compound 25]
half-life at 1 mM [2]: ~25 h
T1/2 (half-lives of diverse carbonate in human plasma) ([1]; 37° C.): 2 min
half-life at 4 mM [1, 4]: < 3 min

SMILES: O=C(CC1(CF)CCOC(=O)O1)OCc1ccc(F)cc1 (stereo not drawn) [compound 29]
half-life at 1 mM [2]: ~25 h
T1/2 (half-lives of diverse carbonate in human plasma) ([1]; 37° C.): 2 min
half-life at 4 mM [1, 4]: < 3 min

SMILES: CC1(CC(=O)Oc2ccccc2)CCOC(=O)O1 (stereo not drawn) [compound 9]
half-life at 4 mM [1, 4]: < 3 min
melting point: 62 to 62.5 °C

SMILES: O=C(CC1(C(F)(F)F)CCOC(=O)O1)OCc1ccccc1 (stereo not drawn) [compound 35]
half-life at 1 mM [2]: ~5 h
peak of 34 (carbonate moiety decomposition product) in HPLC ([2]; degradation of 35 in PBS buffer): not observed
T1/2 (half-lives of diverse carbonate in human plasma) ([1]; 37° C.): <1 min
half-life at 4 mM [1, 4]: < 3 min
melting point: 87.5 to 88 °C

SMILES: O=C(CC1(CF)CCOC(=O)O1)OCc1ccc(F)cc1F (stereo not drawn) [compound 30]
half-life at 1 mM [2]: ~25 h
T1/2 (half-lives of diverse carbonate in human plasma) ([1]; 37° C.): 1 min
half-life at 4 mM [1, 4]: < 3 min

SMILES: COC(=O)CC1(CF)CCOC(=O)O1 (stereo not drawn)
melting point: 42 to 42.5 °C

SMILES: CCOC(=O)CC(O)(CF)CCOC(C)=O (stereo not drawn) [compound 64]
T1/2 (stabilities of amide and ester analogues in human plasma) ([1]; 37° C.): 11 min
half-life at 4 mM [1, 5]: 10 to 22 min

SMILES: CC1(CC(=O)Oc2ccc(F)cc2)CCOC(=O)O1 (stereo not drawn) [compound 10]
half-life at 4 mM [1, 4]: < 3 min
melting point: 68 to 69 °C

SMILES: CC1(CC(=O)Nc2ccccc2)CCOC(=O)O1 (stereo not drawn) [compound 17]
half-life at 4 mM [1, 4]: < 3 min

SMILES: O=C(CC1(C(F)(F)F)CCOC(=O)O1)OCc1ccc(F)cc1 (stereo not drawn) [compound 39]
half-life at 1 mM [2]: ~5 h
T1/2 (half-lives of diverse carbonate in human plasma) ([1]; 37° C.): <1 min
half-life at 4 mM [1, 4]: < 3 min
melting point: 84 to 85 °C

SMILES: CC1(CC(=O)NCc2ccccc2)CCOC(=O)O1 (stereo not drawn) [compound 18]
half-life at 4 mM [1, 4]: 8 min

SMILES: COC(=O)CC(O)(CF)CCOC(C)=O (stereo not drawn) [compound 63]
T1/2 (stabilities of amide and ester analogues in human plasma) ([1]; 37° C.): 10 min
half-life at 4 mM [1, 5]: 10 to 22 min

SMILES: CC1(CC(=O)Oc2ccc3c(c2)CCC3)CCOC(=O)O1 (stereo not drawn) [compound 11]
half-life at 4 mM [1, 6]: < 3 min
half-life at 4 mM [1, 4]: < 3 min
melting point: 88 to 89 °C

SMILES: CC1(CC(=O)OCc2ccccc2)CCOC(=O)O1 (stereo not drawn) [compound 4]
half-life at 1 mM [2]: > 48 h
half-life at 4 mM [1, 4]: 4 min

SMILES: O=C(CC1(C(F)(F)F)CCOC(=O)O1)OCc1ccc(F)cc1F (stereo not drawn) [compound 40]
half-life at 1 mM [2]: ~5 h
T1/2 (half-lives of diverse carbonate in human plasma) ([1]; 37° C.): <1 min
half-life at 4 mM [1, 4]: < 3 min

SMILES: CC1(CC(=O)NCc2ccc(F)cc2)CCOC(=O)O1 (stereo not drawn) [compound 19]
half-life at 4 mM [1, 4]: 8 min

Other lines, results leading:

half-life at 4 mM [1, 3]: > 2880 min
SMILES: COc1ccc(C2OCCC(CC(=O)NCc3ccccc3)(C(F)(F)F)O2)cc1 (stereo not drawn) [compound 52]

T1/2 (stabilities of the benzyl amide analogues with acetal, ketal, t-butyl carbonate promoieties in human plasma) ([1]; 37° C.): >48 h
SMILES: CC1(CC(=O)NCc2ccccc2)CCOC(c2ccccc2)O1 (stereo not drawn) [compound 49]

T1/2 (stabilities of the benzyl amide analogues with acetal, ketal, t-butyl carbonate promoieties in human plasma) ([1]; 37° C.): >48 h
SMILES: COc1ccc(C2OCCC(CC(=O)NCc3ccccc3)(C(F)(F)F)O2)cc1 (stereo not drawn) [compound 51]

T1/2 (stabilities of the benzyl amide analogues with acetal, ketal, t-butyl carbonate promoieties in human plasma) ([1]; 37° C.): >48 h
SMILES: CC(O)(CCOC(=O)OC(C)(C)C)CC(=O)NCc1ccccc1 (stereo not drawn) [compound 54]

T1/2 (stabilities of the benzyl amide analogues with acetal, ketal, t-butyl carbonate promoieties in human plasma) ([1]; 37° C.): >48 h
SMILES: CC(C)(C)OC(=O)OCCC(O)(CC(=O)NCc1ccccc1)C(F)(F)F (stereo not drawn) [compound 55]

T1/2 (stabilities of the benzyl amide analogues with acetal, ketal, t-butyl carbonate promoieties in human plasma) ([1]; 37° C.): >48 h
SMILES: COc1ccc(C2OCCC(CC(=O)NCc3ccccc3)(C(F)(F)F)O2)c(OC)c1 (stereo not drawn) [compound 53]

half-life at 4 mM [1, 3]: > 2880 min
SMILES: CC1(C)OCCC(CC(=O)NCc2ccccc2)(C(F)(F)F)O1 (stereo not drawn) [compound 48]

half-life at 4 mM ([1]; human, human plasma (100%), 37° C., read-out: T1/2 (stabilities of amide and ester analogues in human plasma)): 20 min
half-life at 4 mM ([1]; human, human plasma (100%), read-out: half-life of the acetyl groups on the alcohol): ~20 min
SMILES: CC(=O)OCCC(O)(CF)CC(=O)NCc1ccccc1 (stereo not drawn) [compound 65]

T1/2 (stabilities of the benzyl amide analogues with acetal, ketal, t-butyl carbonate promoieties in human plasma) ([1]; 37° C.): >48 h
SMILES: O=C(CC1(C(F)(F)F)CCOCO1)NCc1ccccc1 (stereo not drawn) [compound 46]

T1/2 (stabilities of the benzyl amide analogues with acetal, ketal, t-butyl carbonate promoieties in human plasma) ([1]; 37° C.): >48 h
SMILES: CC1(CC(=O)NCc2ccccc2)CCOCO1 (stereo not drawn) [compound 45]

T1/2 (stabilities of the benzyl amide analogues with acetal, ketal, t-butyl carbonate promoieties in human plasma) ([1]; 37° C.): >48 h
SMILES: O=C(CC1(C(F)(F)F)CCOC(c2ccccc2)O1)NCc1ccccc1 (stereo not drawn) [compound 50]

half-life at 4 mM [1, 6]: 4 min
half-life at 4 mM [1, 4]: < 3 min
SMILES: O=C(CC1(C(F)(F)F)CCOC(=O)O1)OCCc1ccccc1 (stereo not drawn) [compound 41]

T1/2 (stabilities of amide and ester analogues in human plasma) ([1]; 37° C.): > 120 min
SMILES: CC(O)(CCO)CC(=O)NCc1c(F)c(F)c(F)c(F)c1F (stereo not drawn) [compound 56]

T1/2 (stabilities of the benzyl amide analogues with acetal, ketal, t-butyl carbonate promoieties in human plasma) ([1]; 37° C.): >48 h
SMILES: CC1(CC(=O)NCc2ccccc2)CCOC(C)(C)O1 (stereo not drawn) [compound 47]
